Source: ChEMBL document CHEMBL3108775, “Rescuing biological activity from synthetic phakellistatin 19” (J Med Chem, 2013)
Numbered stars: 1 amine (or outer) side, 2 acyl side, 3 side chain; on linkers, the order of the positions; unused ones are H or OH. Square brackets hold non-standard residues; d marks the D form. Peptide text beside a SMILES is read from it. X1 = CC1(C)SC[C@@H](C(=O)[*:2])N1[*:1]

What was measured:
[1] = test system: HT-29; test: Cytotoxicity against human HT-29 cells by MTT assay; type: functional
[2] = test system: A549; test: Cytotoxicity against human A549 cells by MTT assay; type: functional
[3] = test system: MDA-MB-231; test: Cytotoxicity against human MDA-MB-231 cells by MTT assay; type: functional
[4] = test system: HT-29; test: Antimitotic activity against human HT-29 cells; type: functional, cell-based
[5] = test system: MDA-MB-231; test: Antimitotic activity against human MDA-MB-231 cells; type: functional, cell-based
[6] = test system: A549; test: Antimitotic activity against human A549 cells; type: functional, cell-based

Molecule CC[C@H](C)[C@@H]1NC(=O)[C@@H]2CCCN2C(=O)[C@H]([C@@H](C)O)NC(=O)[C@H](CC(C)C)NC(=O)[C@@H]2CCCN2C(=O)[C@H](Cc2ccccc2)NC(=O)[C@H](Cc2c[nH]c3ccccc23)NC(=O)[C@@H]2CSC(C)(C)N2C1=O (cyclo(FPLTPI[X1]W)) has a GI50 [1] greater than 10 µM, an LC50 [1] greater than 10 µM and a TGI [1] greater than 10 µM. For the same molecule, the GI50 [2] was greater than 10 µM, the LC50 [2] was greater than 10 µM and the TGI [2] was greater than 10 µM. For the same molecule, the GI50 [3] was greater than 10 µM, the LC50 [3] was greater than 10 µM and the TGI [3] was greater than 10 µM.
CC[C@H](C)[C@@H]1NC(=O)[C@@H]2CCCN2C(=O)[C@H]([C@@H](C)O)NC(=O)[C@H](CC(C)C)NC(=O)[C@@H]2CSC(C)(C)N2C(=O)[C@H](Cc2ccccc2)NC(=O)[C@H](Cc2c[nH]c3ccccc23)NC(=O)[C@@H]2CSC(C)(C)N2C1=O (cyclo(F[X1]LTPI[X1]W)) showed a GI50 [1] of 3.16 µM, an LC50 [1] greater than 9.58 µM and a TGI [1] of 6.61 µM. For the same molecule, the GI50 [2] was greater than 9.58 µM, the LC50 [2] was greater than 9.58 µM and the TGI [2] was greater than 9.58 µM. For the same molecule, the GI50 [3] was 5.65 µM, the LC50 [3] was greater than 9.58 µM and the TGI [3] was greater than 9.58 µM.
CC[C@H](C)[C@@H]1NC(=O)[C@@H]2CSC(C)(C)N2C(=O)[C@H]([C@@H](C)O)NC(=O)[C@H](CC(C)C)NC(=O)[C@@H]2CSC(C)(C)N2C(=O)[C@H](Cc2ccccc2)NC(=O)[C@H](Cc2c[nH]c3ccccc23)NC(=O)[C@@H]2CCCN2C1=O (cyclo(F[X1]LT[X1]IPW)) showed a GI50 [1] of 1.82 µM, an LC50 [1] of 2.68 µM and a TGI [1] of 2.2 µM. It also gave a GI50 [2] of 3.45 µM, an LC50 [2] greater than 9.58 µM and a TGI [2] of 7.85 µM. For the same molecule, the GI50 [3] was 1.72 µM, the LC50 [3] was 2.3 µM and the TGI [3] was 2.01 µM.
In the case of CC[C@H](C)[C@@H]1NC(=O)[C@@H]2CSC(C)(C)N2C(=O)[C@H]([C@@H](C)O)NC(=O)[C@H](CC(C)C)NC(=O)[C@@H]2CCCN2C(=O)[C@H](Cc2ccccc2)NC(=O)[C@H](Cc2c[nH]c3ccccc23)NC(=O)[C@@H]2CSC(C)(C)N2C1=O (cyclo(FPLT[X1]I[X1]W)), the GI50 [1] is reported as 1.82 µM, the LC50 [1] is reported as 2.39 µM and the TGI [1] is reported as 2.11 µM. For the same molecule, the GI50 [2] was 3.64 µM, the LC50 [2] was greater than 9.58 µM and the TGI [2] was greater than 9.58 µM. For the same molecule, the GI50 [3] was 2.2 µM, the LC50 [3] was 5.08 µM and the TGI [3] was 3.35 µM.
Molecule CC[C@H](C)[C@@H]1NC(=O)[C@@H]2CCCN2C(=O)[C@H]([C@@H](C)O)NC(=O)[C@H](CC(C)C)NC(=O)[C@@H]2CSC(C)(C)N2C(=O)[C@H](Cc2ccccc2)NC(=O)[C@H](Cc2c[nH]c3ccccc23)NC(=O)[C@@H]2CCCN2C1=O (cyclo(F[X1]LTPIPW)) has a GI50 [1] of 5.71 µM, an LC50 [1] greater than 10 µM and a TGI [1] greater than 10 µM. It also gave a GI50 [2] greater than 10 µM, an LC50 [2] greater than 10 µM and a TGI [2] greater than 10 µM. For the same molecule, the GI50 [3] was 6.11 µM, the LC50 [3] was greater than 10 µM and the TGI [3] was greater than 10 µM.
Work on CC[C@H](C)[C@@H]1NC(=O)[C@@H]2CSC(C)(C)N2C(=O)[C@H]([C@@H](C)O)NC(=O)[C@H](CC(C)C)NC(=O)[C@@H]2CSC(C)(C)N2C(=O)[C@H](Cc2ccccc2)NC(=O)[C@H](Cc2c[nH]c3ccccc23)NC(=O)[C@@H]2CSC(C)(C)N2C1=O (cyclo(F[X1]LT[X1]I[X1]W)) yielded a GI50 [1] of 1.38 µM, an LC50 [1] of 2.11 µM and a TGI [1] of 1.74 µM. The GI50 [2] was 1.47 µM, the LC50 [2] was 1.83 µM and the TGI [2] was 1.65 µM. It also gave a GI50 [3] of 1.65 µM, an LC50 [3] of 2.2 µM and a TGI [3] of 1.93 µM.
With CC[C@H](C)[C@@H]1NC(=O)[C@@H]2CSC(C)(C)N2C(=O)[C@H]([C@@H](C)O)NC(=O)[C@H](CC(C)C)NC(=O)[C@@H]2CCCN2C(=O)[C@H](Cc2ccccc2)NC(=O)[C@H](Cc2c[nH]c3ccccc23)NC(=O)[C@@H]2CCCN2C1=O (cyclo(FPLT[X1]IPW)) the GI50 [1] was 4.01 µM, the LC50 [1] was 4.61 µM and the TGI [1] was 4.21 µM. For the same molecule, the GI50 [2] was greater than 10 µM, the LC50 [2] was greater than 10 µM and the TGI [2] was greater than 10 µM. The GI50 [3] was 2.7 µM, the LC50 [3] was 6.01 µM and the TGI [3] was 4.11 µM.
Work on CC[C@H](C)[C@@H]1NC(=O)[C@@H]2CCCN2C(=O)[C@H]([C@@H](C)O)NC(=O)[C@H](CC(C)C)NC(=O)[C@@H]2CCCN2C(=O)[C@H](Cc2ccccc2)NC(=O)[C@H](Cc2c[nH]c3ccccc23)NC(=O)[C@@H]2CCCN2C1=O [STYLISSAMIDE X] (cyclo(FPLTPIPW)) yielded a GI50 [1] of 0.462 µM, an LC50 [1] greater than 10.5 µM and a TGI [1] of 0.672 µM. It also gave an IC50 [4] of 0.084 µM, an IC50 [5] of 0.084 µM and an IC50 [6] of 0.084 µM. It also gave a GI50 [2] of 0.44 µM, an LC50 [2] greater than 10.5 µM and a TGI [2] of 1.16 µM. For the same molecule, the GI50 [3] was 0.515 µM, the LC50 [3] was greater than 10.5 µM and the TGI [3] was 1.47 µM.
